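96-well plates; 48 h exposure; 5 concentrations. Endpoints by linear interpolation between flanking doses. Not reached: highest tested concentration assigned. TGI denotes the concentration required for complete inhibition of growth.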
Experiments:
Test in all cases: DTP human tumour cell line panel, 48 h
SF-295 CNS = system: SF-295 CNS
UACC-62 melanoma = system: UACC-62 melanoma
A549 NSCLC = system: A549 NSCLC
K-562 leukemia = system: K-562 leukemia
SR leukemia = system: SR leukemia
HCT-15 colon = system: HCT-15 colon
CCRF-CEM leukemia = system: CCRF-CEM leukemia
MDA-MB-231 breast = system: MDA-MB-231 breast
CAKI-1 renal = system: CAKI-1 renal
UACC-257 melanoma = system: UACC-257 melanoma
NCI-H460 lung = system: NCI-H460 lung
PC-3 prostate = system: PC-3 prostate
SNB-19 CNS = system: SNB-19 CNS
SF-268 CNS = system: SF-268 CNS
HS 578T breast = system: HS 578T breast
UO-31 renal = system: UO-31 renal
NCI-H226 lung = system: NCI-H226 lung
HCC-2998 colon = system: HCC-2998 colon
SNB-75 CNS = system: SNB-75 CNS
MALME-3M melanoma = system: MALME-3M melanoma

| Structure (SMILES) | TGI (SF-295 CNS) [µM] | TGI (UACC-62 melanoma) [µM] | TGI (A549 NSCLC) [µM] | TGI (K-562 leukemia) [µM] | TGI (SR leukemia) [µM] | TGI (HCT-15 colon) [µM] | TGI (CCRF-CEM leukemia) [µM] | TGI (MDA-MB-231 breast) [µM] | TGI (CAKI-1 renal) [µM] | TGI (UACC-257 melanoma) [µM] | TGI (NCI-H460 lung) [µM] | TGI (PC-3 prostate) [µM] | TGI (SNB-19 CNS) [µM] | TGI (SF-268 CNS) [µM] | TGI (HS 578T breast) [µM] | TGI (UO-31 renal) [µM] | TGI (NCI-H226 lung) [µM] | TGI (HCC-2998 colon) [µM] | TGI (SNB-75 CNS) [µM] | TGI (MALME-3M melanoma) [µM] |
| --- | --- | --- | --- | --- | --- | --- | --- | --- | --- | --- | --- | --- | --- | --- | --- | --- | --- | --- | --- | --- |
| COc1ccc2nccc(SCC(=O)O)c2c1 | > 100 | > 100 | > 100 | > 100 | > 100 | > 100 | > 100 | > 100 | > 100 | > 100 | > 100 | > 100 | > 100 | > 100 | > 100 | > 100 | > 100 |  |  |  |
| N#Cc1c(=O)c2ccccc2n2c1[nH]c1ccccc12 | > 100 | > 100 | > 100 | > 100 | 43.8 | > 100 | 79.6 | > 100 | > 100 | > 100 | > 100 | > 100 | > 100 | > 100 | > 100 | > 100 | > 100 | > 100 | > 100 |  |
| O=C1/C(=C/c2ccc(OC(=O)c3ccccc3)cc2)CCC/C1=C\c1ccc(OC(=O)c2ccccc2)cc1 | > 100 | > 100 | > 100 |  | > 100 | > 100 | > 100 | > 100 | > 100 | > 100 | > 100 | > 100 | > 100 | > 100 | > 100 | > 100 |  | > 100 | > 100 |  |
| CC1=NN(c2cccc(Cl)c2)C2(SCC(=O)N2c2nc3ccccc3s2)/C1=C\c1ccc(N(C)C)cc1 (configuration not stated) | > 100 |  |  | > 100 | > 100 | > 100 | > 100 | > 100 | > 100 | > 100 | > 100 | > 100 |  | > 100 | 75.7 | > 100 | > 100 | > 100 |  |  |
| COc1cc(C2SCC(=O)N2c2ccc(-n3c(-c4ccccc4)nc4ccccc4c3=O)cc2)cc(OC)c1OC (configuration not stated) | > 100 | > 100 | > 100 | > 100 | > 100 | > 100 | > 100 | > 100 | > 100 | > 100 | > 100 | > 100 | > 100 | > 100 | > 100 | 71.4 |  | > 100 |  |  |
| C=CCN1C(=O)/C(=C\c2cc(C(C)(C)C)c(O)c(C(C)(C)C)c2)NC1=S | 68.3 | 33.1 | > 100 | > 100 | > 100 | > 100 | 20.4 | 34.9 | 83.3 | 43.4 | 36.8 | 42 | > 100 | > 100 | > 100 | > 100 | 74.9 |  |  | > 100 |
| COc1ccc(/C=C2\CN(C)C/C(=C\c3ccc(OC)cc3)C2=O)cc1 | > 100 | > 100 | > 100 | > 100 | > 100 | > 100 | > 100 | > 100 | > 100 |  | > 100 | > 100 | > 100 | > 100 | > 100 | > 100 | > 100 | > 100 | > 100 | > 100 |

Source: PubChem BioAssay (NCI)
